Source: article PMC4660506 (Pharmacognosy Research, 2015)

Columns and labels:
alpha-amylase = biological target: T1, alpha-amylase (Sus scrofa, UniProt P00690); assay: Alpha-amylase inhibitory activity; format: biochemical; settings: qualitative statement
T1 sequence (P00690 16-511): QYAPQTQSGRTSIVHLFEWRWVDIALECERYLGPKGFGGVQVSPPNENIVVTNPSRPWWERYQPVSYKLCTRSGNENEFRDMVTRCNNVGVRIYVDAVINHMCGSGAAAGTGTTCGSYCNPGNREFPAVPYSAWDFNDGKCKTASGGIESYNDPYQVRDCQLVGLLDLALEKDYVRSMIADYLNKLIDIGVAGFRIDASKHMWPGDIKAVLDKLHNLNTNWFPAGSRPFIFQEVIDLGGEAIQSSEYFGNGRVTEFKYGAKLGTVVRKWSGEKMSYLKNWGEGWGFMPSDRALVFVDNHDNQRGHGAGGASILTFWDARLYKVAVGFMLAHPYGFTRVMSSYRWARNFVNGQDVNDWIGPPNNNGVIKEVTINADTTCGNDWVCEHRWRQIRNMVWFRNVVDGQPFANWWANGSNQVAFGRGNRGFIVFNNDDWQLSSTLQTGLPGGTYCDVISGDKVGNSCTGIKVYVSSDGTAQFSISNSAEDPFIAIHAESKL

xanthine oxidase (XO) = xanthine oxidase (XO) (Bos taurus, UniProt P80457); assay: Xanthine oxidase inhibitory activity; format: biochemical
Chain of xanthine oxidase (XO) (P80457 2-1332 limits assumed): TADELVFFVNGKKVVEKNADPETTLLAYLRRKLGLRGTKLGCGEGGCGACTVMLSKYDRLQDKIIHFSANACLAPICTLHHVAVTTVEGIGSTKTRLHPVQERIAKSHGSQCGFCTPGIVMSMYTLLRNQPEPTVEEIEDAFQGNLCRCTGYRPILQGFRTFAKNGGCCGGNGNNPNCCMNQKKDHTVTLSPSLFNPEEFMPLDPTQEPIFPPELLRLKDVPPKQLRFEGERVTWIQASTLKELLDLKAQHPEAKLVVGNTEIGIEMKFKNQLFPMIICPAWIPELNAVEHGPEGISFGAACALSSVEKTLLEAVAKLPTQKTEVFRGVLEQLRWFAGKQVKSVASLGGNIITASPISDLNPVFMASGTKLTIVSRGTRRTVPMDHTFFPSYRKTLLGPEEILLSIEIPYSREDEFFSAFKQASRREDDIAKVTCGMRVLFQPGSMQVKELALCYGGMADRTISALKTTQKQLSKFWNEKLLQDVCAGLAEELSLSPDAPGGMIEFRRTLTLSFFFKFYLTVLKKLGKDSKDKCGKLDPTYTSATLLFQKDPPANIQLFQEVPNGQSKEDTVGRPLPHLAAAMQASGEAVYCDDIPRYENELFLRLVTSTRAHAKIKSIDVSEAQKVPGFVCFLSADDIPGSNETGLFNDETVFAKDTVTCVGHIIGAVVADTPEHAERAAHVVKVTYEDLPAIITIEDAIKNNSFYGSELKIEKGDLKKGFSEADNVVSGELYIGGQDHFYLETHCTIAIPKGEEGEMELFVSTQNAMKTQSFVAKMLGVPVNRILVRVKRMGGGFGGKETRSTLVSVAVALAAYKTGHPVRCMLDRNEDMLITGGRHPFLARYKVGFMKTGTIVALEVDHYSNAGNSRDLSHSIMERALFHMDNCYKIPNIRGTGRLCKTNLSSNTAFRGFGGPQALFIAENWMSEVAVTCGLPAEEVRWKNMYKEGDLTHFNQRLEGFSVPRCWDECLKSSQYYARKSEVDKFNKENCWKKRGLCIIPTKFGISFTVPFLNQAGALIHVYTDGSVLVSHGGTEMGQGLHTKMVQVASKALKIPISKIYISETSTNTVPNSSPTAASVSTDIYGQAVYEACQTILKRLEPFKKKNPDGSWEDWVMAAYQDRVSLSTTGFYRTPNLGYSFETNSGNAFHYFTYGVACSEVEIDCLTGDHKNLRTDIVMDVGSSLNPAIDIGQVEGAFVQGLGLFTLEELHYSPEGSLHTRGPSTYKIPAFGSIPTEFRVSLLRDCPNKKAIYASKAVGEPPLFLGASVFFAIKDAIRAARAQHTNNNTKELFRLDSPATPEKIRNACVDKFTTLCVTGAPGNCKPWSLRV

| XO inhibitory activity (in words) (xanthine oxidase (XO); qualitative statement) | Molecule | Alpha-amylase inhibitory activity (in words) (alpha-amylase) | other results |
| --- | --- | --- | --- |
|  | C=C(C)[C@@H]1CC[C@]2(C)CC[C@]3(C)[C@H](CC[C@@H]4[C@@]5(C)CC[C@H](O)C(C)(C)[C@@H]5CC[C@]43C)[C@@H]12 [F11, lupeol] | more active against alpha-amylase as compared to the parent fraction |  |
| active | 2-hydroxyacetophenone [F2] |  |  |
| active | C[C@@H]1O[C@@H](OC[C@H]2O[C@@H](Oc3c(-c4ccc(O)c(O)c4)oc4cc(O)cc(O)c4c3=O)[C@H](O)[C@@H](O)[C@@H]2O)[C@H](O)[C@H](O)[C@H]1O [F9, rutin] |  | EC50 (xanthine oxidase (XO)): 17.5 µM |
|  | CC[C@H](CC[C@@H](C)[C@H]1CC[C@H]2[C@@H]3CC=C4C[C@@H](O)CC[C@]4(C)[C@H]3CC[C@]12C)C(C)C [F7, β-sitosterol] | more active against alpha-amylase as compared to the parent fraction |  |
|  | O=c1c(O)c(-c2ccc(O)c(O)c2)oc2cc(O)cc(O)c12 [F10, quercetin] |  | XO inhibitory activity (in words) (xanthine oxidase (XO); qualitative statement in text, listed as Quercetin): highest inhibitory activity; XO inhibitory activity (in words) (xanthine oxidase (XO); qualitative statement in text, listed as quercetin): active |
